Source: BindingDB's records for patent USRE49080 (Novartis AG, 2022)

Target: T1, Sodium/glucose cotransporter 2 (Homo sapiens, UniProt P31639)
T1 sequence (P31639 whole entry): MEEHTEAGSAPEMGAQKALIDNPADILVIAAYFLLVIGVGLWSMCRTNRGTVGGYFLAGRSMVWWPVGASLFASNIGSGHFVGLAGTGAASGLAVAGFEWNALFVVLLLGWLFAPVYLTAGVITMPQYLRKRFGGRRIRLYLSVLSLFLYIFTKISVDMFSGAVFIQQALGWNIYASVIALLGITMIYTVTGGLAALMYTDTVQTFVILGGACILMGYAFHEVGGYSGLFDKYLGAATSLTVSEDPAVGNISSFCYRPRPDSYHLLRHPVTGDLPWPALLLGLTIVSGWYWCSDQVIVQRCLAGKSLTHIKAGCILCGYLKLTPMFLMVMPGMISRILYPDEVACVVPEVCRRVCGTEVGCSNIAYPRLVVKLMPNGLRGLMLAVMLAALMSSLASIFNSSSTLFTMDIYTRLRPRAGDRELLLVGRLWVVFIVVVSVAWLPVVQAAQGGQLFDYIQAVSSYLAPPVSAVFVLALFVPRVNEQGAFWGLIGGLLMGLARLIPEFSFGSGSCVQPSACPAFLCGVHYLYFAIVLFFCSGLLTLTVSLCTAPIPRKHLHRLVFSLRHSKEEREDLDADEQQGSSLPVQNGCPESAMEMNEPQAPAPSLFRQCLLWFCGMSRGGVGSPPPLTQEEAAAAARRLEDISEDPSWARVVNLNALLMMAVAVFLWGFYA
Test: Inhibitory Effect on the Sodium-dependent Glucose Co-Transporter SGLT, SGLT1 and SGLT2
Description: The SGLT-2 assay is carried out as follows: CHO-hSGLT2 cells are cultivated in Ham's F12 Medium (BioWhittaker) with 10% foetal calf serum and 250 μg/mL zeocin (Invitrogen), and HEK293-hSGLT2 cells are cultivated in DMEM medium with 10% foetal calf serum and 250 μg/mL zeocin (Invitrogen). The cells are detached from the culture flasks by washing twice with PBS and subsequently treating with trypsin/EDTA. After the addition of cell culture medium the cells are centrifuged, resuspended in culture medium and counted in a Casy cell counter. Then 40,000 cells per well are seeded into a white, 96-well plate coated with poly-D-lysine and incubated overnight at 37° C., 5% CO2. […] 250 μl of assay buffer and 5 μl of test compound are then added to each well and the plate is incubated for a further 15 minutes in the incubator. 5 μl of 10% DMSO are used as the negative control. The reaction is started by adding 5 μl of 14 C-AMG (0.05 μCi) to each well. After 2 hours' incubation at 37° C., 5% CO2, the cells are washed again with 250 μl of PBS ([…]) and then lysed by the addition of 25 μl of 0.1 N NaOH (5 min. at 37° C.). 200 μl of MicroScint20 (Packard) are added to each well and incubation is continued for a further 20 min at 37° C.

- IC50: 1.4 nM
Structure (SMILES): CN1CCOc2ccc(Cc3cc([C@@H]4O[C@H](CO)[C@@H](O)[C@H](O)[C@H]4O)ccc3Cl)cc21 [USRE49080, Example 11]
